{"source": "patent US9650423B2", "about": "“Long peptides of 22-45 amino acid residues that induce and/or enhance antigen specific immune responses” (priority 2000, dated 2017)", "key": {"HLA-DR4 (DRB*0401)": {"molecular_target": "HLA-DR4 (DRB*0401)", "test": "HLA-DR-peptide binding assay", "parameters": "species or system human", "settings": "HPV16-E7 22-mer peptides; >70 indicates undetectable binding; read-out: Binding DR4, IC50"}, "HLA-DR7 (DRB1*0701)": {"molecular_target": "HLA-DR7 (DRB1*0701) (Homo sapiens, UniProt P01903+P01911, A100R/A102G/A103Q/D57E/D86V/E43K/F76Y/K127E/L162R/M171V/P40G/Q125H/Q99D/R33Q/R42Y/R54Q/S133A/S66F/T210M/V115G/Y107V/Y59L/Y89S)", "settings": "read-out: Binding DR7, IC50"}, "HLA-DR 1, 2, 3, 4 and 7": {"test_system": "HLA-DR 1, 2, 3, 4 and 7", "test": "HLA-DR-peptide binding assay, summary over the molecules tested", "parameters": "species or system human", "settings": "E7 peptides tested on HLA-DR 1, 2, 3, 4 and 7", "procedure": "The analysis of peptide binding to purified DR molecules was performed using N-terminally fluorescence-labelled standard peptides."}, "HLA-DR2 (DRB1*0201)": {"molecular_target": "HLA-DR2 (DRB1*0201)", "test": "HLA-DR-peptide binding assay", "parameters": "species or system human", "settings": "HPV16-E7 22-mer peptides; >70 indicates undetectable binding; read-out: Binding DR2, IC50"}, "HLA-DR1 (DRB*0101)": {"molecular_target": "T1, HLA-DR1 (DRB*0101) (Homo sapiens, UniProt P01903+P01911, A100R/D57E/F55L/F60I/F76Y/I96L/L162R/M171V/P40L/Q125E/R42F/V115G/Y59C)", "T1 construct": "endogenous in cells; host or cells: LG2.1 B-lymphoblastic cell line, homozygous for HLA-DR", "test": "biochemical", "format": "binding", "settings": "read-out: Binding DR1, IC50"}, "HLA-DR3 (DRB*0301)": {"molecular_target": "HLA-DR3 (DRB*0301)", "test": "HLA-DR-peptide binding assay", "parameters": "species or system human", "settings": "HPV16-E7 22-mer peptides; >70 indicates undetectable binding; read-out: Binding DR3, IC50"}, "[1]": {"test_system": "HPV16 E7-specific T-helper clones", "test": "HPV16 E7-specific Th-clones: proliferation and IFNγ production", "format": "cell-based, human", "settings": "Th-clone from HLA-DR15, 4 and DQ6,7 positive PBMC raised against peptide E741-62", "procedure": "Peptide-specific T-cell bulk cultures were generated as described previously (van der Burg et al., 1999) using either the E7 22-mer or E7 35-mer peptides. Specific proliferation was measured by incubation of 50,000 responders with an equal amount of irradiated (30Gy) APC (autologous PBMC unless indicated otherwise) and peptide or protein as indicated. E7-peptide and -protein-specific bulk T-cells were cloned by limiting dilution as described previously (van der Burg et al., 1999).\nTo determine specific excretion of cytokines, T-cell clones were stimulated by incubation of 50.000 T-cells with an equal amount of APC (30Gy) together with 10 μg/ml peptide, control peptide, E7 protein or control protein as indicated. After 24 hours of incubation, supernatant was harvested and replicate wells were pooled. Cytokine production was measured by Enzyme-Linked Immunosorbent Assay (ELISA) as described previously (van der Burg et al., 1999)."}, "[2]": {"test_system": "PBMC of HLA-DR1 positive blood donors", "test": "Proliferation of PBMC stimulated with long E6 peptides", "format": "cell-based, human", "settings": "two HLA-DR1 positive donors, stimulated with pool of two 35-mer peptides covering E6 109-158", "procedure": "Furthermore, PBMC of two different HLA-DR1 positive blood donors were stimulated with a pool of two long 35-mer peptides that together covered E6 109-158. […] A CD4+ T-helper clone derived from one of these bulks was analysed further and specifically proliferated and produced IFNγ when stimulated with HPV16 E6 peptide and HPV16 E6 protein in a HLA-DR1 restricted manner (FIG. 16).\nFIGS. 16a-16d depict a peptide E6127-158 induced T-cell response that recognizes naturally processed Ag. PBMC from a healthy HLA-DR1 positive blood donor were stimulated four times with peptide E6127-158. FIGS. 16a and 16b are entitled E6 127-158 stimulated HLA-DR1+PBMC. Proliferation of the bulk T-cell culture (top, left, 16a) and IFNγ production (top, right, 16b) is depicted. FIGS. 16c and 16d are entitled E6 127-158 stimulated PBMC derived clone 9 HLA-DR restriction in proliferation and IFNγ production. The specific proliferation (bottom, left, 16c) and IFNγ production (bottom, right, 16d) of the T-helper clone, derived from the bulk T-cell culture, and HLA-restriction when stimulated with E6127-158, or E6 protein is depicted. (See, also, FIGS. 1a-1d and associated descriptions)."}, "[3]": {"test_system": "E7 49-57-specific CD8+ T cells", "test": "Vaccination, H-2Db E7 49-57 tetramer staining of spleen cultures", "format": "in vivo, C57BL/6 mice", "settings": "B6 mice", "procedure": "(§1) Immunization strategies. C57BL/6 mice were injected subcutaneously with either 50 μg E7^49-57 peptide or 150 μg E7^43-77 35-mer dissolved in PBS in order to achieve similar molar levels of the E7^49-57 CTL epitope in both cases. Combinations with various adjuvantia were tested. In the case of IFA and Montanide, the dissolved peptides were emulsified in 50% of these respective substances. ODN-CpG (50 μg/mouse), MPL (10 μg/mouse) and GM-CSF (4 μg/mouse) were all dissolved in PBS and mixed with the peptides before subcutaneous vaccination. The total injected volume was 200 μl/mouse.\nT cell cultures. T cells were obtained from immunized mice by culturing spleen cells (5×10^6 cells/well of a 24-wells plate) in complete medium in the presence of 0.5×10^6 E7^49-57-expressing cells (tumor cell line 13.2) or, when indicated, in the presence of D1 cells.\nTetramer staining. Spleen cultures, stimulated with tumor cell line 13.2 for seven days, were transferred at an amount of 40×10^4 per well to 96-well V-bottom microtiter plates and washed twice with PBS/BSA 0.5%. Subsequently, PE-labelled E749-57-containing tetramer was added. After 30 minutes of incubation at room temperature, cells were washed twice with PBS/BSA 0.5% and incubated with FITC-labelled anti CD8b Ab for 30 minutes. Subsequently cells were washed twice in PBS/BSA 0.5%, suspended in PBS/BSA 0.5% containing Propidium Iodide (PI) (0.5) μg/ml) and transferred to tubes. Cell samples were analysed in a FACSCalibur flow cytometer (Becton Dickinson, San Jose, Calif., USA) using CellQuest software. A total of 20×10^4 events was analysed for fluorescence intensity. Debris was gated out using the PI staining and subsequently the CD8^+ fraction was gated. […] As a positive control the HPV16 E7 specific CTL clone 9.5 was used."}, "[4]": {"test_system": "E7 49-57-specific CD8+ T cells", "test": "Vaccination, H-2Db E7 49-57 tetramer staining of spleen cultures", "format": "in vivo, C57BL/6 mice", "settings": "MHC class II−/− mice"}, "[5]": {"test_system": "E7 43-77-specific IFNγ-producing CD4+ T cells", "test": "Vaccination, intracellular IFN-γ staining of CD4+ T cells", "format": "in vivo, C57BL/6 mice", "settings": "B6 mice, vaccinated once, IFA", "procedure": "as §1\nBefore use, the D1 cells were incubated for 16 hours with the E7^43-77 35-mer and subsequently activated by adding LPS (10 μg/ml) for 6 hours and then thoroughly washed. Complete medium consists of Iscove's Modified Dulbecco's Medium (IMDM; BioWhittaker, Walkersville, Md., USA) supplemented with 8% FCS, 100 IU/ml penicillin, 2 mM glutamine (ICN, Aurora, Ohio, USA) and 30 μM 2-ME (Merck, Darmstadt, Germany). Cultures were maintained at 37° C. in humidified air containing 5% CO2. No exogenous IL-2 was added. […]\nIntracellular cytokine staining. […] Subsequently, the percentage of CD8^+ and CD4^+ IFN-γ producing T cells was measured as described before (van der Burg et al., 2001)."}, "Ad5E1-expressing tumors": {"test_system": "Ad5E1-expressing tumors", "settings": "Toes et al., 1996a, 1996b; cited from earlier work"}, "[6]": {"test_system": "PBMC or cord blood cells (CBC)", "format": "cell-based, human"}}, "note": "Values joined by “and” are separate entries in the source; they are usually repeats but may differ in a detail not shown here. Identical values can stand only once. Residues, ends and D or L forms follow the SMILES beside them. No end group written: not given here."}
{"compound": "CC[C@H](C)[C@H](NC(=O)[C@H](CC(N)=O)NC(=O)[C@H](Cc1ccc(O)cc1)NC(=O)[C@H](Cc1c[nH]cn1)NC(=O)[C@H](C)NC(=O)[C@H](CCCNC(=N)N)NC(=O)[C@H](CC(=O)O)NC(=O)[C@@H]1CCCN1C(=O)[C@H](CCC(=O)O)NC(=O)[C@H](C)NC(=O)[C@H](CCC(N)=O)NC(=O)CNC(=O)[C@H](C)NC(=O)[C@@H]1CCCN1)C(=O)N[C@H](C(=O)N[C@H](C(=O)N[C@@H](Cc1ccccc1)C(=O)N[C@@H](CS)C(=O)N[C@@H](CS)C(=O)N[C@@H](CCCCN)C(=O)N[C@@H](CS)C(=O)N[C@@H](CC(=O)O)C(=O)O)[C@@H](C)O)C(C)C", "note": "[E7 41-62] (H-PAGQAEPDRAHYNIVTFCCKCD-OH; N-terminus and C-terminus assumed)", "values": [{"measurement": "IC50", "setting": "HLA-DR4 (DRB*0401)", "value": 38, "unit": "µM"}, {"measurement": "IC50", "setting": "HLA-DR7 (DRB1*0701)", "value": "> 70", "unit": "µM"}, {"measurement": "HLA-DR molecules bound", "setting": "HLA-DR 1, 2, 3, 4 and 7", "value": "bound to DR1, 2, 3 and 4"}, {"measurement": "IC50", "setting": "HLA-DR2 (DRB1*0201)", "value": 50, "unit": "µM"}, {"measurement": "IC50", "setting": "HLA-DR1 (DRB*0101)", "value": 7.4, "unit": "µM"}, {"measurement": "IC50", "setting": "HLA-DR3 (DRB*0301)", "value": 55, "unit": "µM"}, {"measurement": "response of HLA-DR15 restricted Th-clone to pulsed APC", "setting": "[1]", "value": "specifically respond"}]}
{"compound": "E6 121-142: 22-mer peptide, amino acids 121-142 of HPV16 E6 protein (EKQRHLDKKQRFHNIRGRWTGR; UniProt P03126 121-142, looked up, fragment)", "values": [{"measurement": "specific proliferation of PBMC", "setting": "[2]", "value": "proliferated specifically"}]}
{"compound": "E6 127-158: peptide, amino acids 127-158 of HPV16 E6 protein (DKKQRFHNIRGRWTGRCMSCCRSSRTRRETQL)", "values": [{"measurement": "specific proliferation of PBMC", "setting": "[2]", "value": "proliferated specifically"}]}
{"compound": "E6 protein: recombinant HPV16-E6 protein produced in E. coli (DKKQRFHNIRGRWTGRCMSCCRSSRTRRETQL) [reference compound]", "values": [{"measurement": "specific proliferation of PBMC", "setting": "[2]", "value": "proliferated specifically"}]}
{"compound": "GQAEPDRAHYNIVTFCCKCDSTLRLCVQSTHVDIR [E7 43-77]", "values": [{"measurement": "E7 49-57-specific CD8+ T cell response", "setting": "[3]; prime-boost, IFA", "value": "vigorous"}, {"measurement": "mice with E7 49-57-specific CTL response", "setting": "[3]; primed and boosted 50 days later, IFA", "value": "9/11"}, {"measurement": "E7 49-57-specific CD8+ T cells, mean", "setting": "[3]; primed and boosted, IFA", "value": 19, "unit": "%"}, {"measurement": "E7 49-57-specific CD8+ T cells, range", "setting": "[3]; primed and boosted, IFA", "value": "5-40%"}, {"measurement": "E7 49-57-specific CTL response", "setting": "[3]; vaccinated once, GM-CSF and IFA", "value": "moderate"}, {"measurement": "CD8+ T cells stained with tetramers", "setting": "[3]; vaccinated once, IFA, responders", "value": "~5", "unit": "%"}, {"measurement": "mice responding to the vaccine (tetramer staining)", "setting": "[3]; vaccinated once, IFA, spleens day 10", "value": "3 out of 9"}, {"measurement": "mice with E7 49-57-specific CTL responses", "setting": "[3]; vaccinated once, MPL or ODN-CpG", "value": "in all mice"}, {"measurement": "level of the CTL response", "setting": "[3]; vaccinated once, MPL or ODN-CpG, majority of animals", "value": "up to 40 % of CD8+ T cells"}, {"measurement": "E7 49-57-specific CTL response", "setting": "[3]; vaccinated once, Montanide adjuvant", "value": "no responses were observed"}, {"measurement": "E7 49-57-specific CTL response", "setting": "[3]; vaccinated once, combined with anti-CD40 antibody or GM-CSF", "value": "no or minimal CTL responses"}, {"measurement": "CTL responses", "setting": "[4]; one vaccination, ODN-CpG", "value": "robust CTL responses"}, {"measurement": "number of E7 49-57-specific CTL", "setting": "[4]; prime-boost, IFA", "value": "far lower than found in B6 mice after two vaccinations"}, {"measurement": "E7 43-77-specific IFNγ-producing CD4+ T cells", "setting": "[5]", "value": "≥ 5", "unit": "%"}, {"measurement": "response of HLA-DR15 restricted Th-clone to pulsed APC", "setting": "[1]", "value": "specifically respond"}]}
{"compound": "SGPSNTPPEI (minimal E1A-derived CTL epitope)", "values": [{"measurement": "effect of peptide vaccination on outgrowth of Ad5E1-expressing tumors", "setting": "Ad5E1-expressing tumors", "value": "enhances rather than inhibits the growth"}]}
{"compound": "STHVDIRTLEDLLMGTLGIVCP [E7 71-92]", "values": [{"measurement": "IC50", "setting": "HLA-DR4 (DRB*0401)", "value": "> 70", "unit": "µM"}, {"measurement": "IC50", "setting": "HLA-DR7 (DRB1*0701)", "value": "> 70", "unit": "µM"}, {"measurement": "IC50", "setting": "HLA-DR2 (DRB1*0201)", "value": 2, "unit": "µM"}, {"measurement": "IC50", "setting": "HLA-DR1 (DRB*0101)", "value": 12, "unit": "µM"}, {"measurement": "number of antigen-specific cells (IFNγ ELISPOT)", "setting": "[6]", "value": "2 per 100,000 cord blood cells or PBMC and <1 per 100,000 cord blood cells or PBMC"}, {"measurement": "IC50", "setting": "HLA-DR3 (DRB*0301)", "value": "> 70", "unit": "µM"}]}
